Reference: US10519098B2, “Aromatic derivatives as anti-malarial” (Council of Scientific & Industrial Research, priority 2014, dated 2019)
Where “and” joins values, the source holds several entries; their conditions need not be identical. Identical values can stand only once. Like-named read-outs stand apart in the source and are kept apart here.

Experiments:
[1] = system: Chloroquine-sensitive (3D7) strain of P. falciparum; assay: Malaria SYBR Green I-based fluorescence (MSF) assay, 3D7 strain; type: cell-based; settings: Plasmodium falciparum
Protocol: (§1) The stock (5 mg/mL or 10 mM) solutions of extracts were prepared in DMSO and required dilutions were made in culture medium.
(§2) Two-fold serial dilutions of test samples were made in 96 well plates and incubated with 1.0% parasitized cell suspension containing 0.8% parasitaemia (Asynchronous culture with more than 80% ring stages). The plates were incubated at 37° C. in CO2 incubator in an atmosphere of 5% CO2 and air mixture. 72 hours later 100 μL of lysis buffer containing 2× concentration of SYBR Green-I (Invitrogen) was added to each well and incubated for one hour at 37° C. The plates were examined at 485±20 nm of excitation and 530±20 nm of emission for relative fluorescence units (RFUs) per well using the fluorescence plate reader (FLX800, BIOTEK). IC50 values were obtained by Logit regression analysis of dose response curves (Singh et al. 2011).

[2] = system: Chloroquine-resistant (K1) strain of P. falciparum; assay: Malaria SYBR Green I-based fluorescence (MSF) assay, K1 strain; type: cell-based; settings: Plasmodium falciparum
Protocol: as §1, §2

in vitro = settings: monkey
Protocol: The cells were incubated with test sample dilutions for 72 h and MTT was used as reagent for detection of cytotoxicity. Podophyllotoxin (SIGMA) was used as the standard reference drug.

[3] = system: chloroquine resistant P. yoelii (N-67); assay: In vivo evaluation in P. yoelii (N-67) Swiss mice model; settings: 100 mg/kg intraperitoneal, four doses day 0-3 once daily; one value per mouse
Protocol: The molecules were tested at 100 mg/kg dose through intraperitoneal route. The mice received infective inoculum containing 1×10^5 parasites on day 0 and then received four doses of test compound on day 0-3 once daily. Five infected mice were used for each molecule and five infected mice were kept as untreated control. Arteether (5 mg/kg, ×4, intramuscular) was used as positive control. Thin blood smear from tail blood of each mouse was prepared on day 4. The blood smears were fixed in methanol, stained with Giemsa's stain and examined under the light microscope (100×oil immersion). At least 10-15 fields per smear were scanned to obtain percent parasitaemia in treated as well as untreated mice. If significant suppression in percent parasitaemia is observed on day 4, the monitoring continues up to day 28.

[4] = system: Plasmodium falciparum D(6) clone; settings: J Nat Prod. 2004, 67(1), 88-90; read-out: IC(50) against Plasmodium falciparum D(6) clone; cited from earlier work
P. falciparum W(2) clone = settings: J Nat Prod. 2004, 67(1), 88-90; read-out: IC(50) against P. falciparum W(2) clone; cited from earlier work
[5] = system: multidrug resistant human nasopharyngeal carcinoma (KB); settings: when used with vincristine; Bioorg. Med. Chem. Lett. 2012, 22 (24), 7726-7729; cited from earlier work
[6] = 3D7, range given for listed compounds, read-out: IC50 values against 3D7 culture
[7] = P. falciparum 3D7, 72 hours incubation, read-out: IC50 against 3D7
[8] = K1, range given for listed compounds, read-out: IC50 values against K1 culture
[9] = P. falciparum K1, 72 hours incubation, read-out: IC50 against K1

Row | SMILES | IC50 [1, 6] [nM] | IC50 [1, 7] [nM] | IC50 [2, 8] [nM] | IC50 [2, 9] [nM] | CC50 at 72 h (in vitro) [nM] | % parasitaemia on day 4 in 5 individual mice [3] | melting point [°C] | IC50 [4] [nM] | IC50 (P. falciparum W(2) clone) [nM] | chemoreversal activity, fold more active than verapamil [5] [fold]
1 | COc1ccc([C@@H](CNC(=O)/C=C/c2ccccc2)OC(=O)/C=C/c2ccccc2)cc1OC [Compound 1, (S)-2-cinnamamido-1-(3,4-dimethoxyphenyl)ethyl cinnamate] | 2000 to 7000 | 3900 | 1500 to 4000 | 2560 | 80700 | 09.50% and 13.76% and 11.93% and 11.72% and 13.20% | 132 to 135 | 2040 | 3060 | 
2 | COc1ccc([C@@H](CNC(=O)/C=C/c2cc(OC)c(OC)c(OC)c2)OC(=O)/C=C/c2cc(OC)c(OC)c(OC)c2)cc1OC [Compound 41, (S)-1-(3,4-dimethoxyphenyl)-2-((E)-3-(3,4,5-trimethoxyphenyl)acrylamido)ethyl (E)-3-(3,4,5-trimethoxyphenyl)acrylate] | 2000 to 7000 | 3160 | 1500 to 4000 | 1780 | 88000 | 11.78% and 11.93% and 11.12% and 11.26% and 12.13% | 138 to 140 |  |  | 
3 | COc1ccc([C@H](CNC(=O)/C=C/c2cc(OC)c(OC)c(OC)c2)OC(=O)/C=C/c2cc(OC)c(OC)c(OC)c2)cc1OC [Compound 42, (R)-1-(3,4-dimethoxyphenyl)-2-((E)-3-(3,4,5-trimethoxyphenyl)acrylamido)ethyl (E)-3-(3,4,5-trimethoxyphenyl)acrylate] | 2000 to 7000 | 2280 | 1500 to 4000 | 2070 | 88900 | 14.07% and 12.50% and 15.10% and 12.16% and 11.46% | 138 to 140 |  |  | 
4 | COc1ccc([C@@H](COC(=O)/C=C/c2cc(OC)c(OC)c(OC)c2)OC(=O)/C=C/c2cc(OC)c(OC)c(OC)c2)cc1OC [Compound 56, (S)-1-(3,4-dimethoxyphenyl)ethane-1,2-diyl(2E,2′E)-bis(3-(3,4,5-trimethoxyphenyl)acrylate)] | 2000 to 7000 | 2340 | 1500 to 4000 | 2620 | 55700 | 06.06% and 08.31% and 16.23% and 13.92% and 11.13% |  |  |  | 
5 | COc1cc(/C=C/C(=O)NC[C@@H](OC(=O)/C=C/c2cc(OC)c(OC)c(OC)c2)c2cc(OC)c(OC)c(OC)c2)cc(OC)c1OC [Compound 58, (S)-1-(3,4,5-trimethoxyphenyl)-2-((E)-3-(3,4,5-trimethoxyphenyl)acrylamido)ethyl (E)-3-(3,4,5-trimethoxyphenyl)acrylate] | 2000 to 7000 | 1890 | 1500 to 4000 | 1930 | 42700 | 10.10% and 10.16% and 13.50% and 07.50% and 11.92% | 67 to 69 |  |  | 
6 | COc1cc(C(=O)OCC(OC(=O)c2cc(OC)c(OC)c(OC)c2)c2cc(OC)c(OC)c(OC)c2)cc(OC)c1OC (stereo not shown) [bis-trimethoxybenzoyl derivative] |  |  |  |  |  |  |  |  |  | 340
